In one assay the target is T1, human 5-HT6 receptor (Homo sapiens, UniProt P50406).
T1 construct: expressed in transfected cells; host or cells: CHO cells (membrane preparation)
Kind of assay: Serotonin 5-HT6 receptor binding assay ([3H]-clozapine). Conditions: 100 nM test drug; [3H]-clozapine 2 nM; human 5-HT6 receptor-expressing CHO cell membrane; read-out: BINDING INHIBITION RATE (%) 5HT6 100 nM. As to the method:
(3) Serotonin 5-HT6 Receptor Binding Assay
After a reaction in a total volume of 200 μL of 50 mM Tris-HCl (pH=7.6), 4 mM CaCl2, and 0.5 mM EDTA buffer solution containing 50 μL of [^3H]-clozapine (final concentration 2 nM), 1 μL of test drug in DMSO, and 149 μL of human 5-HT6 receptor-expressing CHO cell membrane sample, human 5-HT6 receptor binding activity of [^3H]-clozapine was measured. The reaction solution let stand for 40 minutes at room temperature, and then it was quickly added on a glass fiber filter plate (Multiscreen FB, Millipore inc.) coated with 0.3% polyethyleneimine (PEI) and filtered under reduced pressure. The glass fiber filter was washed with 200 μL of ice-cooled 50 mM Tris-HCl (pH=7.6) twice, repeatedly filtered under reduced pressure, and then transferred to a vial containing 4 mL of Ecoscint A (National Diagnostics inc.). The residual radioactivity on the glass fiber filter was measured by a liquid scintillation counter. Nonspecific binding was measured in the presence of 10 μM of SB-258585, and [^3H]-clozapine binding inhibition rate in the presence of 100 nM of test drug was determined.

Another assay concerns the target human D2L receptor (Homo sapiens, UniProt P14416). Kind of assay: Dopamine D2L receptor binding assay ([3H]-spiperone). Conditions: 10 nM test drug; [3H]-spiperone 0.5 nM; human D2L receptor-expressing CHO cell membrane; read-out: BINDING INHIBITION RATE (%) D2L 10 nM. The protocol:
(1) Dopamine D2L Receptor Binding Assay
D2L receptor binding assay was performed in reference to a method described by Hirose et al. (Japan. J. Pharmacol., 53, 321-329, 1990). After a reaction in a total volume of 200 μL of 50 mM Tris-HCl (pH=7.6) buffer solution containing 50 μL of [^3H]-spiperone (final concentration 0.5 nM), 1 μL of test drug in DMSO, and 149 μL of human D2L receptor-expressing CHO cell membrane sample, human D2L receptor binding activity of [^3H]-spiperone was measured. The reaction solution let stand for 60 minutes at room temperature, and then it was quickly added on a glass fiber filter plate (Multiscreen FB, Millipore inc.) coated with 0.3% polyethyleneimine (PEI) and filtered under reduced pressure. The glass fiber filter was washed with 200 μL of ice-cooled 50 mM Tris-HCl (pH=7.6) twice, repeatedly filtered under reduced pressure, and then transferred to a vial containing 4 mL of Ecoscint A (National Diagnostics inc.). The residual radioactivity on the glass fiber filter was measured by a liquid scintillation counter. Nonspecific binding was measured in the presence of 10 μM of spiperone, and [^3H]-spiperone binding inhibition rate in the presence of 10 nM of test drug was determined. The larger binding inhibition rate (%) means that test drug has the higher binding affinity for human D2L receptor.

The target of the next assay is T2, human 5-HT2A receptor (Homo sapiens, UniProt P28223).
T2 construct: expressed in transfected cells; host or cells: CHO cells (membrane preparation)
T2 sequence (P28223 whole entry): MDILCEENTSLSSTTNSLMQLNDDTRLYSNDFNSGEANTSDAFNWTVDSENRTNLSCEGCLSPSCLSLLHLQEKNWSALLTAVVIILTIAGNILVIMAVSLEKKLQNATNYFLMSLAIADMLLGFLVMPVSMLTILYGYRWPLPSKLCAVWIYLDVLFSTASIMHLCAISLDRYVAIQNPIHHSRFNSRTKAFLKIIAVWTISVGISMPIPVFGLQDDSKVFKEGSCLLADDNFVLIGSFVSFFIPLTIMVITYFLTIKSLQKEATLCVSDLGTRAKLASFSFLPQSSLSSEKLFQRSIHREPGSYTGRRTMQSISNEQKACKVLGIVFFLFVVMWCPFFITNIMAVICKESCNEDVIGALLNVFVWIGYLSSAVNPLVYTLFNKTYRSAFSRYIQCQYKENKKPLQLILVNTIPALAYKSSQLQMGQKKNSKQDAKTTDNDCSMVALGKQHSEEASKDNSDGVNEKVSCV
Kind of assay: Serotonin 5-HT2A receptor binding assay ([3H]-ketanserin). Conditions: [3H]-ketanserin 1 nM, human 5-HT2A receptor-expressing CHO cell membrane; for inhibition at 0.001 µM: 1 nM test drug, read-out: BINDING INHIBITION RATE (%) 5HT2A 1 nM; for inhibition at 0.01 µM: 10 nM test drug, read-out: BINDING INHIBITION RATE (%) 5HT2A 10 nM. The protocol:
(2) Serotonin 5-HT2A Receptor Binding Assay
5-HT2A receptor binding assay was performed in reference to a method described by Hirose et al. (Japan. J. Pharmacol., 53, 321-329, 1990). After a reaction in a total volume of 200 μL of 50 mM Tris-HCl (pH=7.6) buffer solution containing 50 μL of [^3H]-ketanserin (final concentration 1 nM), 1 μL of test drug in DMSO, and 149 μL of human 5-HT2A receptor-expressing CHO cell membrane sample, human 5-HT2A receptor binding activity of [^3H]-ketanserin was measured. The reaction solution let stand for 15 minutes at 37° C., and then it was quickly added on a glass fiber filter plate (Multiscreen FB, Millipore inc.) coated with 0.05% Brij 35 and filtered under reduced pressure. The glass fiber filter was washed with 200 μL of ice-cooled 50 mM Tris-HCl (pH=7.6) twice, repeatedly filtered under reduced pressure, and then transferred to a vial containing 4 mL of Ecoscint A (National Diagnostics inc.). The residual radioactivity on the glass fiber filter was measured by a liquid scintillation counter. Nonspecific binding was measured in the presence of 10 μM of MDL-100907, and [^3H]-ketanserin binding inhibition rate in the presence of 1 nM or 10 nM of test drug was determined.

A further assay concerns the target T3, human α1D receptor (Homo sapiens, UniProt P25100).
T3 construct: expressed in transfected cells; host or cells: CHO cells (membrane preparation)
T3 sequence (P25100 1-572): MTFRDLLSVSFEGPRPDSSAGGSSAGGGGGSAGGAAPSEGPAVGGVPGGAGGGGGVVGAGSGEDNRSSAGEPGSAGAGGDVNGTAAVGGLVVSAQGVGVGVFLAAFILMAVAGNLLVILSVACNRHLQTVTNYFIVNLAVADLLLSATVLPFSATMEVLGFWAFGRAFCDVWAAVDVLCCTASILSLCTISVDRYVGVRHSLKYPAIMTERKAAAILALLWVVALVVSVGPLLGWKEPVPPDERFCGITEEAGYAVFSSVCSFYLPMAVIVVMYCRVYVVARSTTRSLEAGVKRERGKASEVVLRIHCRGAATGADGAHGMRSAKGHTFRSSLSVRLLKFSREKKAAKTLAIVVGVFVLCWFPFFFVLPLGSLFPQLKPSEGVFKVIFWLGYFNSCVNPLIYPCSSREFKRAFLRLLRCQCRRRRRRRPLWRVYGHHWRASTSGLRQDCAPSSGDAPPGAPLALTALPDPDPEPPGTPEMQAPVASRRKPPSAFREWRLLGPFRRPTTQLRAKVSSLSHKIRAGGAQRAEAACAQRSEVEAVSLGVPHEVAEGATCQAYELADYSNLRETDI
Kind of assay: Adrenaline α1D receptor binding assay ([3H]-prazosin). Conditions: 100 nM test drug; [3H]-prazosin 0.6 nM; human α1D receptor-expressing CHO cell membrane; read-out: BINDING INHIBITION RATE (%) α1D 100 nM. The protocol:
(4) Adrenaline α1D Receptor Binding Assay
After a reaction in a total volume of 200 μL of 50 mM Tris-HCl (pH=7.6) buffer solution containing 50 μL of [^3H]-prazosin (final concentration 0.6 nM), 1 μL of test drug in DMSO, and 149 μL of human α1D receptor-expressing CHO cell membrane sample, human α1D receptor binding activity of [^3H]-prazosin was measured. The reaction solution let stand for 30 minutes at room temperature, and then it was quickly added on a glass fiber filter plate (Multiscreen FB, Millipore inc.) coated with 0.3% polyethyleneimine (PEI) and filtered under reduced pressure. The glass fiber filter was washed with 200 μL of ice-cooled 50 mM Tris-HCl (pH=7.6) twice, repeatedly filtered under reduced pressure, and then transferred to a vial containing 4 mL of Ecoscint A (National Diagnostics inc.). The residual radioactivity on the glass fiber filter was measured by a liquid scintillation counter. Nonspecific binding was measured in the presence of 1 μM of prazosin, and [^3H]-prazosin binding inhibition rate in the presence of 100 nM of test drug was determined.

We go through 15 compounds from patent US8541585B2, “N-acyl cyclic amine derivative or pharmaceutically acceptable salt thereof” (Dainippon Sumitomo Pharma Co., Ltd., priority 2010, dated 2013).

Sequence of human D2L receptor (P14416 whole entry): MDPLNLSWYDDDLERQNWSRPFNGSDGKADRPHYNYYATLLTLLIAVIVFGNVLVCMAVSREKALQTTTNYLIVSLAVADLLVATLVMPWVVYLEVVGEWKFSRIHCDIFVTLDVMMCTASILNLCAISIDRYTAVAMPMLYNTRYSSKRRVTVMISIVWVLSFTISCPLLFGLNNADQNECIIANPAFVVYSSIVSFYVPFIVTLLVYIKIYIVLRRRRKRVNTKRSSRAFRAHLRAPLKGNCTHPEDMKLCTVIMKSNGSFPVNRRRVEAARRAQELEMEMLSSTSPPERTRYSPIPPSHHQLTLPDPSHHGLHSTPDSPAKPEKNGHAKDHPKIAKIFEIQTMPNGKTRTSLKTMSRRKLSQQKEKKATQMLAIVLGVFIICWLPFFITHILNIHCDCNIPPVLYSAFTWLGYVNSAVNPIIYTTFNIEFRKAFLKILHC
T1 sequence (P50406 whole entry): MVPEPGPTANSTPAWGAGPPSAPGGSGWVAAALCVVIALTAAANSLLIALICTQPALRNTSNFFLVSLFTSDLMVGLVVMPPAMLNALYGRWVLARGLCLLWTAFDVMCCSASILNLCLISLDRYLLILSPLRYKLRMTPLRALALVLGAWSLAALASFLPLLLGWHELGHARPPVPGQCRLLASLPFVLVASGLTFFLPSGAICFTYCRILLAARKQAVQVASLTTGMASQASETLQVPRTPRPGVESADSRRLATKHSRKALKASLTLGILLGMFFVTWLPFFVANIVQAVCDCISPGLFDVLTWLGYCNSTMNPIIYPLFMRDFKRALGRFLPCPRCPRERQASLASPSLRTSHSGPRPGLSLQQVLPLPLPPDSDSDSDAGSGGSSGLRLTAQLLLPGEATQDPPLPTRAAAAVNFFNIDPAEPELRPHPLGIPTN

One may read the inhibition as the relative decrease from the control value, in per cent. Consider `COc1ccc2[nH]c(C(=O)N3CCCC[C@H]3CCN3CCC(c4coc5ccccc45)CC3)cc2c1` [Example 26], for which the inhibition at 0.1 µM at human 5-HT6 receptor was determined as 65%; on human α1D receptor, 67%. Further, the values for the inhibition at 0.01 µM at human D2L receptor and at human 5-HT2A receptor were 77% and 98%, respectively. For the same compound, the inhibition at 0.001 µM on human 5-HT2A receptor worked out at 77%.

On to `Cc1ccc2nc(C(=O)N3CCC[C@H]3CCN3CCC(C(=O)c4ccc(F)cc4)CC3)[nH]c2c1` [Example 59], for which the inhibition at 0.1 µM at human 5-HT6 receptor was 87%; at human α1D receptor, 95%. Moreover, the inhibition at 0.01 µM at human D2L receptor amounted to 91%. Further, the inhibition at 0.001 µM on human 5-HT2A receptor is 58%.

For the compound `Cc1ccc2cc(C(=O)N3CCC[C@H]3CCN3CCC(c4noc5cc(F)ccc45)CC3)[nH]c2c1` [Example 6, (S)-(2-(2-(4-(6-Fluorobenzo[d]isoxazol-3-yl)piperidin-1-yl)ethyl)pyrrolidin-1-yl)(6-methyl-1H-indol-2-yl)methanone], the inhibition at 0.1 µM on human 5-HT6 receptor turned out to be 94%; at human α1D receptor it was 71%. Moreover, the inhibition at 0.01 µM at human D2L receptor came out at 91%. The inhibition at 0.001 µM on human 5-HT2A receptor came to 61%.

As to `CCNC(=O)O[C@@H]1C[C@@H](CCN2CCC(c3c[nH]c4ccccc34)CC2)N(C(=O)c2cc3cc(OC)ccc3[nH]2)C1` [Example 36], the results for the inhibition at 0.1 µM on human 5-HT6 receptor and on human α1D receptor were 86% and 75%, respectively. In addition, the inhibition at 0.01 µM at human D2L receptor stood at 48%; on human 5-HT2A receptor it was 87%.

For `O=C(/C=C/c1ccc2c(c1)OCO2)N1CCC[C@H](CN2CCC(c3c[nH]c4ccccc34)CC2)C1` [Example 34], the inhibition at 0.1 µM on human 5-HT6 receptor came to 86%; on human α1D receptor, 93%. The inhibition at 0.01 µM on human D2L receptor turned out to be 75%; at human 5-HT2A receptor it was 98%.

In the case of `Cc1cc2c3c(c1)cc(C(=O)N1CCC[C@H]1CCN1CCC(C(=O)c4ccc(F)cc4)CC1)n3CCC2=O` [Example 46], the figures for the inhibition at 0.1 µM on human 5-HT6 receptor and on human α1D receptor were 82% and 54%, respectively. Moreover, on human D2L receptor, the inhibition at 0.01 µM is 58%. Moreover, the inhibition at 0.001 µM on human 5-HT2A receptor is 48%.

On to `O=C(c1ccc(F)cc1)C1CCN(CC[C@@H]2CCCN2C(=O)c2cc3c(F)cccc3[nH]2)CC1` [Example 62], for which the inhibition at 0.1 µM on human 5-HT6 receptor turned out to be 87%; on human α1D receptor, 43%. The inhibition at 0.01 µM at human D2L receptor is 81%. In addition, the inhibition at 0.001 µM at human 5-HT2A receptor was 61%.

In the case of `COc1c(F)ccc2[nH]c(C(=O)N3CCC[C@H]3CCN3CCC(C(=O)c4ccc(F)cc4)CC3)cc12` [Example 162, (S)-(5-Fluoro-4-methoxy-1H-indol-2-yl)(2-(2-(4-(4-fluorobenzoyl)piperidin-1-yl)ethyl)pyrrolidin-1-yl)methanone], the inhibition at 0.1 µM was 93% on human 5-HT6 receptor and 79% on human α1D receptor. Further, the inhibition at 0.01 µM at human D2L receptor worked out at 86%. The inhibition at 0.001 µM at human 5-HT2A receptor came out at 84%.

`Cc1ccc2[nH]c(C(=O)N3CCC[C@H]3CCN3CCC(c4coc5ccccc45)CC3)cc2c1` [Example 8, (S)-(2-(2-(4-(Benzofuran-3-yl)piperidin-1-yl)ethyl)pyrrolidin-1-yl)(5-methyl-1H-indol-2-yl)methanone]: the results for the inhibition at 0.1 µM on human 5-HT6 receptor and on human α1D receptor were 93% and 62%, respectively. Further, the inhibition at 0.01 µM was 76% on human D2L receptor and 92% at human 5-HT2A receptor.

`Cc1ccc2[nH]c(C(=O)N3CCOC[C@H]3CCN3CCC(c4coc5ccccc45)CC3)cc2c1` [Example 27]: the values for the inhibition at 0.1 µM at human 5-HT6 receptor and at human α1D receptor were 85% and 97%, respectively. In addition, the inhibition at 0.01 µM at human D2L receptor amounted to 87%; on human 5-HT2A receptor, 93%.

Turning to `O=C(c1ccc(F)cc1)C1CCN(CC[C@@H]2CCCN2C(=O)c2cc3ccc(F)cc3[nH]2)CC1` [Example 159, (S)-(6-Fluoro-1H-indol-2-yl)(2-(2-(4-(4-fluorobenzoyl)piperidin-1-yl)ethyl)pyrrolidin-1-yl)-methanone], the inhibition at 0.1 µM came to 96% at human 5-HT6 receptor and 71% at human α1D receptor. Moreover, on human D2L receptor, the inhibition at 0.01 µM amounted to 93%. Further, the inhibition at 0.001 µM at human 5-HT2A receptor turned out to be 78%.

Turning to `N#Cc1ccc2[nH]c(C(=O)N3CCC[C@H]3CCN3CCC(C(=O)c4ccc(F)cc4)CC3)cc2c1` [Example 56], the inhibition at 0.1 µM at human 5-HT6 receptor amounted to 91%; on human α1D receptor it was 70%. In addition, the inhibition at 0.01 µM at human D2L receptor stood at 84%. Also, the inhibition at 0.001 µM at human 5-HT2A receptor came to 70%.

For the compound `Cc1ccc2cc(C(=O)N3CCC[C@H]3CCN3CCC(c4c[nH]c5cc(F)ccc45)CC3)[nH]c2c1` [Example 5], the inhibition at 0.1 µM at human 5-HT6 receptor is 98%; on human α1D receptor, 70%. For the same compound, on human D2L receptor, the inhibition at 0.01 µM was found to be 83%. For the same compound, the inhibition at 0.001 µM on human 5-HT2A receptor was determined as 72%.

Turning to `Cc1ccc2cc(C(=O)N3CCC[C@H]3CCN3CCN(c4nsc5cc(F)ccc45)CC3)[nH]c2c1` [Example 13], the inhibition at 0.1 µM at human 5-HT6 receptor stood at 93%; on human α1D receptor, 60%. For the same compound, the inhibition at 0.01 µM at human D2L receptor is 72%. Moreover, the inhibition at 0.001 µM on human 5-HT2A receptor is 34%.

Take `COc1ccc2[nH]c(C(=O)N3CCCC[C@H]3CCN3CCC(c4coc5cc(F)ccc45)CC3)cc2c1` [Example 30]: at human 5-HT6 receptor, the inhibition at 0.1 µM worked out at 65%. The inhibition at 0.01 µM on human D2L receptor came out at 92%; at human 5-HT2A receptor, 95%.
